From PubChem BioAssay AID1963985 (Molecular Pharmacology Branch, DTP, NCI, 2024)

Test system: 252836-082-R-J2-PDC tumor spheroids, viability
Assay: Anticancer human tumor 252836-082-R-J2-PDC patient-derived head and neck squamous cell carcinoma cell line growth inhibition [PI3K]
Settings: spheroids with HUVEC and MSC; for IC50: curve of first compound; for viability, T/C: stronger effect = lower value
Excerpt: Combinatorial screen of targeted agents with the PI3K inhibitors inavolisib, alpelisib, duvelisib, and copanlisib in multi-cell type tumor spheroids
A high-throughput screen of multi-cell type tumor spheroids was designed to identify active combinations of targeted small molecules and PI3K pathway inhibitors. Complex spheroids include a stromal component modeled by human endothelial cells (HUVEC) and fibroblasts modeled by human mesenchymal stem cells (MSCs). The concentration ranges selected for each drug and investigational agent were based upon clinically achievable concentrations if the clinical Cmax of the agent was known.
Compounds. The drugs and investigational agents: inavolisib (NSC800729), alpelisib (NSC765974), duvelisib (NSC772469), copanlisib (NSC816437), ipatasertib (NSC767898), afuresertib (NSC778305), talazoparib (NSC767125), sapanisertib (NSC764658), selumetinib (NSC741078), tovorafenib (DAY101, NSC766906), vemurafenib (NSC761431), ravoxertinib (NSC781343), sotorasib (NSC818433), MRTX1133 (NSC 836407), abemaciclib (NSC 768073), palbociclib (NSC758247), venetoclax (NSC 766270), SY5609 (NSC837396), enzalutamide (NSC755605), and darolutamide (NSC825331), were obtained from the National Cancer Institute (NCI) Developmental Therapeutics Program Chemical Repository. The FDA-approved anticancer drug set is available from the NCI Developmental Therapeutics Program. […] The stock solutions were prepared in dimethyl sulfoxide (DMSO, Sigma-Aldrich, St. Louis, MO, cat. D2650) at 800-fold the tested concentration and stored at -70 degrees C prior to their use. All drugs and investigational agents were tested over a range starting from a high concentration at or near the clinical Cmax and decreasing in half-log increments. If the clinical Cmax for an agent had not been determined, the highest concentration tested was 10 microM.
Cell Culture. All cells were maintained in an incubator at 37 degrees C and 5% CO2 with 95% humidity. The PDC lines were cultured according to standard operating procedures established by the NCI PDMR (https://pdmr.cancer.gov/sops/default.htm). All PDCs were thawed and cultured in Matrigel-coated flasks prepared with a working solution of 1X Ham's F-12 nutrient mix, without supplementation (Invitrogen, Waltham, MA, cat. 11765054), 100 U/mL penicillin-streptomycin (Invitrogen, cat. 15140122), and 2.5% Matrigel (Corning Inc., Corning, NY, cat. 354248) for the first three passages. The 354836-022-R-J1-PDC, 475296-252-R-J1-PDC, and 997726-040-R-J2-PDC lines were cultured in 6A media, which includes advanced DMEM/F-12 (Thermo Fisher Scientific, cat. 12634028), 10 mM HEPES (Thermo Fisher Scientific, cat. 15630080), 1X GlutaMAX supplement (Thermo Fisher Scientific, cat. 35050061), 0.1 mg/mL primocin (InvivoGen, San Diego, CA, cat. ant-pm-2), 10% defined fetal bovine serum, heat inactivated (HyClone Laboratories Inc., Logan, UT, cat. SH30070.03HI), 50% L-WRN conditioned media (ATCC, cat. CRL-3276), 1.25 mM N-Acetyl-L-cysteine (Sigma-Aldrich, cat. A9165), 10 mM nicotinamide (Sigma-Aldrich, cat. N0636), 1X B-27 supplement (Thermo Fisher Scientific, cat. 17504044), 1X N-2 supplement (Thermo Fisher Scientific, cat. 17502048), and 10 microM Y-27632 dihydrochloride (Tocris Bioscience, Bristol, United Kingdom, cat. 1254). The 624824-186-R-J2-PDC line was cultured in 6C/Colon 1B media, which includes all 6A media components plus 50 ng/mL human EGF recombinant protein (Thermo Fisher Scientific, cat. PHG0311). […]

[1] = second compound 0.00316 µM, first compound 0.0316 µM
[2] = second compound 0.00316 µM, first compound 0.1 µM
[3] = second compound 0.00316 µM, first compound 0.316 µM
[4] = second compound 0.00316 µM, first compound 1 µM
[5] = second compound 0.01 µM, first compound 0.0316 µM
[6] = second compound 0.01 µM, first compound 0.1 µM
[7] = second compound 0.01 µM, first compound 0.316 µM
[8] = second compound 0.01 µM, first compound 1 µM
[9] = second compound 0.0316 µM, first compound 0.0316 µM
[10] = second compound 0.0316 µM, first compound 0.1 µM
[11] = second compound 0.0316 µM, first compound 0.316 µM
[12] = second compound 0.0316 µM, first compound 1 µM
[13] = second compound 0.1 µM, first compound 0.0316 µM
[14] = second compound 0.1 µM, first compound 0.1 µM
[15] = second compound 0.1 µM, first compound 0.316 µM
[16] = second compound 0.1 µM, first compound 1 µM
[17] = second compound 0.316 µM, first compound 0.0316 µM
[18] = second compound 0.316 µM, first compound 0.1 µM
[19] = second compound 0.316 µM, first compound 0.316 µM
[20] = second compound 0.316 µM, first compound 1 µM
[21] = second compound 1 µM, first compound 0.0316 µM
[22] = second compound 1 µM, first compound 0.1 µM
[23] = second compound 1 µM, first compound 0.316 µM
[24] = second compound 1 µM, first compound 1 µM
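Note: spheroids exposed to agents for seven days before readout.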
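Throughout, for viability, T/C: percent of vehicle DMSO control viability so 100% = untreated growth.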

SMILES: CC(C)NCC(C(=O)N1CCN(c2ncnc3c2C(C)CC3O)CC1)c1ccc(Cl)cc1 (centres undefined) + CC(Nc1ccc2c(c1)OCCn1cc(N3C(=O)OCC3C(F)F)nc1-2)C(N)=O
- IC50 (second compound 0.00316 µM): 710 nM
- IC50 (second compound 0.01 µM): 749 nM
- IC50 (second compound 0.0316 µM): 631 nM
- IC50 (second compound 0.1 µM): 234 nM
- IC50 (second compound 0.316 µM): 173 nM
- IC50 (second compound 1 µM): < 31.6 nM
- viability, T/C [1]: 100%
- viability, T/C [2]: 83%
- viability, T/C [3]: 66.9%
- viability, T/C [4]: 41.4%
- viability, T/C (second compound 0.00316 µM, first compound 3.16 µM): 29.8%
- viability, T/C (second compound 0.00316 µM, first compound 10 µM): 18.3%
- viability, T/C [5]: 83.1%
- viability, T/C [6]: 88.3%
- viability, T/C [7]: 69.6%
- viability, T/C [8]: 42.5%
- viability, T/C (second compound 0.01 µM, first compound 3.16 µM): 28.5%
- viability, T/C (second compound 0.01 µM, first compound 10 µM): 20.1%
- viability, T/C [9]: 87.4%
- viability, T/C [10]: 82.3%
- viability, T/C [11]: 67%
- viability, T/C [12]: 36.9%
- viability, T/C (second compound 0.0316 µM, first compound 3.16 µM): 29.3%
- viability, T/C (second compound 0.0316 µM, first compound 10 µM): 17.9%
- viability, T/C [13]: 74.8%
- viability, T/C [14]: 56.4%
- viability, T/C [15]: 47.9%
- viability, T/C [16]: 35.8%
- viability, T/C (second compound 0.1 µM, first compound 3.16 µM): 23.8%
- viability, T/C (second compound 0.1 µM, first compound 10 µM): 15.7%
- viability, T/C [17]: 54.9%
- viability, T/C [18]: 49.6%
- viability, T/C [19]: 49.4%
- viability, T/C [20]: 37.3%
- viability, T/C (second compound 0.316 µM, first compound 3.16 µM): 25.4%
- viability, T/C (second compound 0.316 µM, first compound 10 µM): 16.6%
- viability, T/C [21]: 43%
- viability, T/C [22]: 42.2%
- viability, T/C [23]: 37.3%
- viability, T/C [24]: 29.2%
- viability, T/C (second compound 1 µM, first compound 3.16 µM): 22.8%
- viability, T/C (second compound 1 µM, first compound 10 µM): 14.7%

SMILES: CCN1CCN(Cc2ccc(Nc3ncc(F)c(-c4cc(F)c5nc(C)n(C(C)C)c5c4)n3)nc2)CC1 + CC(Nc1ccc2c(c1)OCCn1cc(N3C(=O)OCC3C(F)F)nc1-2)C(N)=O
- IC50 (second compound 0.00316 µM): > 1000 nM
- IC50 (second compound 0.01 µM): > 1000 nM
- IC50 (second compound 0.0316 µM): > 1000 nM
- IC50 (second compound 0.1 µM): > 1000 nM
- IC50 (second compound 0.316 µM): 36.1 nM
- IC50 (second compound 1 µM): < 3.16 nM
- viability, T/C (second compound 0.00316 µM, first compound 0.00316 µM): 87.8%
- viability, T/C (second compound 0.00316 µM, first compound 0.01 µM): 86.1%
- viability, T/C [1]: 75.3%
- viability, T/C [2]: 93.1%
- viability, T/C [3]: 82.7%
- viability, T/C [4]: 76.5%
- viability, T/C (second compound 0.01 µM, first compound 0.00316 µM): 90.3%
- viability, T/C (second compound 0.01 µM, first compound 0.01 µM): 82.5%
- viability, T/C [5]: 94.4%
- viability, T/C [6]: 78.7%
- viability, T/C [7]: 90%
- viability, T/C [8]: 70.3%
- viability, T/C (second compound 0.0316 µM, first compound 0.00316 µM): 79.1%
- viability, T/C (second compound 0.0316 µM, first compound 0.01 µM): 79.6%
- viability, T/C [9]: 73%
- viability, T/C [10]: 74.1%
- viability, T/C [11]: 80.6%
- viability, T/C [12]: 81.3%
- viability, T/C (second compound 0.1 µM, first compound 0.00316 µM): 73.7%
- viability, T/C (second compound 0.1 µM, first compound 0.01 µM): 59.7%
- viability, T/C [13]: 58.8%
- viability, T/C [14]: 66.5%
- viability, T/C [15]: 52.3%
- viability, T/C [16]: 54.2%
- viability, T/C (second compound 0.316 µM, first compound 0.00316 µM): 51.2%
- viability, T/C (second compound 0.316 µM, first compound 0.01 µM): 47.4%
- viability, T/C [17]: 51.5%
- viability, T/C [18]: 53.3%
- viability, T/C [19]: 50.8%
- viability, T/C [20]: 44.3%
- viability, T/C (second compound 1 µM, first compound 0.00316 µM): 47%
- viability, T/C (second compound 1 µM, first compound 0.01 µM): 43.9%
- viability, T/C [21]: 43.5%
- viability, T/C [22]: 36.8%
- viability, T/C [23]: 40.5%
- viability, T/C [24]: 31.8%
